Reference: patent US10433545B2, “Non-streaking durable composition for cleaning and disinfecting hard surfaces” (Ecolab USA Inc., priority 2016, dated 2019)

Legend:
[1] = list of typical surfactants; CMC measured in water at 20 to 25 degrees C; cited from earlier work
feline calicivirus = test: FCV (feline calicivirus, norovirus surrogate) log reduction; format: cell-based; settings: surfactant combined with Bardac 2050 quat
Experimental: Variations of this formula were then tested against feline calicivirus, which is norovirus surrogate. Bardac 2050 by itself was the control.
Quat was tested with each surfactant alone to determine which surfactant was interfering. Also, Lonzabac 12 was added to one formula. Streak testing was performed on each formula. FCV (feline calicivirus) testing was done in 400 ppm hard water with a 10 minute contact time and soil.

S. aureus = test: OECD method log reduction, S. aureus; format: cell-based, Staphylococcus aureus; settings: 400 ppm water; 750 ppm quat
Experimental: The germicidal test methods referred to are those approved by the EPA for germicide registration in force at the time of the patent application. Staphylococcus aureus is the ATCC 6538 strain.
Formulas with passable or ok glass performance and formulas of interest were then tested for antimicrobial efficacy.
Four log reduction is considered passing for this method.

| Structure (SMILES) | CMC (ppm) [1] [ppm] | FCV kill, result in words (feline calicivirus) | OECD log reduction Staph (S. aureus) [log] |
| --- | --- | --- | --- |
| CCCCC(CC)CO[C@H]1O[C@H](CO)[C@@H](O)[C@H](O)[C@H]1O (stereo partly drawn) [AG 6202, a-D-Glucopyranoside, 2-ethylhexyl] | 14000 | does not | – |
| CCCCCCCCCC[N+](C)(C)CCCCCCCCCC.[Cl-] [Bardac 2250, Didecyldimethylammoniumchloride] | – | – | 1.6 |
| CCCCCCCCCCCC[N+](C)(C)[O-] [Barlox 12, Lauryldimethyl amine oxide] | – | interferes with FCV kill | – |
